Results from ChEMBL document CHEMBL4800723, “Data for DCP probe BI-1942” (2021).

How the values were obtained:
Tryptase (Homo sapiens) = Tryptase (Homo sapiens) (UniProt Q9BZJ3+Q15661+Q9NRR2); assay: TRYPTASE_H Eurofins SafetyScreen44 (BI); format: protein assay; conditions: Compound concentration 10.0 uM
[1] = target: Vasopressin V1a receptor (Homo sapiens) (UniProt P37288); assay: V1A/HUM Eurofins SafetyScreen44 (BI); conditions: Compound concentration 10.0 uM
Chymase (Homo sapiens) = Chymase (Homo sapiens) (UniProt P23946); conditions: Compound concentration 10.0 uM
[2] = target: D(3) dopamine receptor (Homo sapiens) (UniProt P35462); conditions: Compound concentration 10.0 uM
[3] = target: Proteinase-activated receptor 1 (Homo sapiens) (UniProt P25116); assay: PAR1(H)ANTAG Eurofins SafetyScreen44 (BI); conditions: filed as antagonist, Compound concentration 10.0 uM
[4] = target: Alpha-2A adrenergic receptor (Homo sapiens) (UniProt P08913); conditions: Compound concentration 10.0 uM
[5] = target: 5-hydroxytryptamine receptor 1B (Homo sapiens) (UniProt P28222); assay: 5HT1B(H) Eurofins SafetyScreen44 (BI); conditions: filed as antagonist, Compound concentration 10.0 uM
[6] = target: D(1A) dopamine receptor (Homo sapiens) (UniProt P21728); assay: D1/H Eurofins SafetyScreen44 (BI); conditions: filed as antagonist, Compound concentration 10.0 uM
[7] = target: Collagenase 3 (Homo sapiens) (UniProt P45452); assay: MMP-13 (H) Eurofins SafetyScreen44 (BI); conditions: Compound concentration 10.0 uM
[8] = target: Cathepsin B (Homo sapiens) (UniProt P07858); assay: CATHEPSB(H) Eurofins SafetyScreen44 (BI); conditions: Compound concentration 10.0 uM
[9] = target: Histamine H4 receptor (Homo sapiens) (UniProt Q9H3N8); conditions: Compound concentration 10.0 uM
Rattus norvegicus [10] = species: Rattus norvegicus; assay: NA+/SITE2/R Eurofins SafetyScreen44 (BI); conditions: Compound concentration 10.0 uM
[11] = target: Sigma intracellular receptor 2 (Homo sapiens) (UniProt Q5BJF2); conditions: Compound concentration 10.0 uM
Caspase-3 (Homo sapiens) = Caspase-3 (Homo sapiens) (UniProt P42574); assay: CASPASE-3 Eurofins SafetyScreen44 (BI); conditions: Compound concentration 10.0 uM
[12] = target: Matrix metalloproteinase-14 (Homo sapiens) (UniProt P50281); assay: MT1-MMP(H)(MMP-14) Eurofins SafetyScreen44 (BI); conditions: Compound concentration 10.0 uM
[13] = target: Muscarinic acetylcholine receptor M3 (Homo sapiens) (UniProt P20309); conditions: Compound concentration 10.0 uM
[14] = target: 5-hydroxytryptamine receptor 2A (Homo sapiens) (UniProt P28223); assay: 5HT2AH_AGON Eurofins SafetyScreen44 (BI); conditions: filed as agonist, Compound concentration 10.0 uM
[15] = target: GABA-A receptor; anion channel (Rattus norvegicus) (UniProt O09028+P15431+P18506+P18508+P19969+P20236+P23574+P23576+P28471+P28473+P30191+P62813+P63079+P63138+Q91ZM7+Q9ES14); assay: BZD/CENTR/R Eurofins SafetyScreen44 (BI); format: protein-complex assay; conditions: Compound concentration 10.0 uM
[16] = target: Cholecystokinin receptor type A (Homo sapiens) (UniProt P32238); assay: CCKA/H Eurofins SafetyScreen44 (BI); conditions: Compound concentration 10.0 uM
[17] = target: Kappa-type opioid receptor (Homo sapiens, UniProt P41145); assay: KAPPA(KOP)_HU Eurofins SafetyScreen44 (BI); conditions: Compound concentration 10.0 uM
[18] = target: Alpha-1A adrenergic receptor (Homo sapiens) (UniProt P35348); conditions: Compound concentration 10.0 uM
[19] = target: Beta-2 adrenergic receptor (Homo sapiens) (UniProt P07550); assay: BETA2/HUM Eurofins SafetyScreen44 (BI); conditions: filed as antagonist, Compound concentration 10.0 uM
[20] = target: 5-hydroxytryptamine receptor 1A (Homo sapiens) (UniProt P08908); conditions: Compound concentration 10.0 uM
Rattus norvegicus [21] = species: Rattus norvegicus; assay: K+/VOLT/RA Eurofins SafetyScreen44 (BI); conditions: Compound concentration 10.0 uM
[22] = target: Cathepsin Z (Homo sapiens) (UniProt Q9UBR2); assay: CATHEPSINX(H) Eurofins SafetyScreen44 (BI); conditions: Compound concentration 10.0 uM
[23] = target: Muscarinic acetylcholine receptor M2 (Homo sapiens) (UniProt P08172); assay: M2/H Eurofins SafetyScreen44 (BI); conditions: filed as antagonist, Compound concentration 10.0 uM
[24] = target: Stromelysin-1 (Homo sapiens) (UniProt P08254); assay: MMP-3 (H) Eurofins SafetyScreen44 (BI); conditions: Compound concentration 10.0 uM
[25] = target: Alpha-2B adrenergic receptor (Homo sapiens) (UniProt P18089); conditions: Compound concentration 10.0 uM
[26] = target: Interstitial collagenase (Homo sapiens) (UniProt P03956); assay: MMP1 (H) Eurofins SafetyScreen44 (BI); conditions: Compound concentration 10.0 uM
[27] = target: Alpha-1A adrenergic receptor (Homo sapiens) (UniProt P35348); assay: ALPHA1AH_ANTAG Eurofins SafetyScreen44 (BI); conditions: filed as antagonist, Compound concentration 10.0 uM
[28] = target: Mu-type opioid receptor (Homo sapiens) (UniProt P35372); assay: MU/H Eurofins SafetyScreen44 (BI); conditions: Compound concentration 10.0 uM
[29] = target: Matrix metalloproteinase-9 (Homo sapiens) (UniProt P14780); assay: MMP-9 (H) Eurofins SafetyScreen44 (BI); conditions: Compound concentration 10.0 uM
[30] = target: Neuronal acetylcholine receptor; alpha4/beta2 (Homo sapiens) (UniProt P17787+P43681); assay: N_NEURO_A4B2 Eurofins SafetyScreen44 (BI); format: protein-complex assay; conditions: filed as agonist, Compound concentration 10.0 uM
[31] = target: Disintegrin and metalloproteinase domain-containing protein 17 (Homo sapiens) (UniProt P78536); assay: TACE Eurofins SafetyScreen44 (BI); conditions: Compound concentration 10.0 uM
[32] = target: D(4) dopamine receptor (Homo sapiens) (UniProt P21917); conditions: Compound concentration 10.0 uM
[33] = target: Beta-2 adrenergic receptor (Homo sapiens) (UniProt P07550); conditions: Compound concentration 10.0 uM
[34] = target: Beta-1 adrenergic receptor (Homo sapiens) (UniProt P08588); conditions: Compound concentration 10.0 uM
[35] = target: Serotonin 3 (5-HT3) receptor (Homo sapiens) (UniProt P46098+A5X5Y0+O95264+Q70Z44+Q8WXA8); assay: 5HT3/H Eurofins SafetyScreen44 (BI); format: protein-complex assay; conditions: Compound concentration 10.0 uM
[36] = target: Dipeptidyl peptidase 1 (Homo sapiens) (UniProt P53634); assay: CATHEPSIN_C_CE Eurofins SafetyScreen44 (BI); conditions: Compound concentration 10.0 uM
Sequence of Dipeptidyl peptidase 1 (Homo sapiens) (P53634 25-134 limits assumed): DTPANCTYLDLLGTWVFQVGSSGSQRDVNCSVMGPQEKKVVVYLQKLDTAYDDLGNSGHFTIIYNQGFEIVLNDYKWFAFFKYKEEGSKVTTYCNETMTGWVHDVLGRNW
Sequence of Dipeptidyl peptidase 1 (Homo sapiens) (P53634 231-394 limits assumed): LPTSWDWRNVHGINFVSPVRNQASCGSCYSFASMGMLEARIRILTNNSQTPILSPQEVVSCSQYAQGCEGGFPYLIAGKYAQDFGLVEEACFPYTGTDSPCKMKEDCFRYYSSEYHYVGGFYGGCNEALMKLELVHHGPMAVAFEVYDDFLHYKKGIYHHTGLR
Sequence of Dipeptidyl peptidase 1 (Homo sapiens) (P53634 395-463 limits assumed): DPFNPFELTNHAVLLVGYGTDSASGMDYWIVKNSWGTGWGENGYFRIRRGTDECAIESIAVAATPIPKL

Sequence of Alpha-1A adrenergic receptor (Homo sapiens) (P35348 whole entry): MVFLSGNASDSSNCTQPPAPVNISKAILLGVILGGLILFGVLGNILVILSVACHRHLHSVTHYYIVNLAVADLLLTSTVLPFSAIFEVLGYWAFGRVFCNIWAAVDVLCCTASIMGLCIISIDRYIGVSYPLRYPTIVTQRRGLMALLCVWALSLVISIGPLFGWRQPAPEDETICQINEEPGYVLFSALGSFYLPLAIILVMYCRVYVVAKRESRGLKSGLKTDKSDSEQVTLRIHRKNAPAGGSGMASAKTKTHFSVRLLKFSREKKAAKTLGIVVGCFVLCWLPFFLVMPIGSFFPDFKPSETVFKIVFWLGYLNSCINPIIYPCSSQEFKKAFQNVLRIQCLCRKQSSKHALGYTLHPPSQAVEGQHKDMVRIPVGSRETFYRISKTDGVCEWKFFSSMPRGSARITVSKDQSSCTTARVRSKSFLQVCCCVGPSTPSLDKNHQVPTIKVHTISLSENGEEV
Sequence of Beta-2 adrenergic receptor (Homo sapiens) (P07550 whole entry, looked up): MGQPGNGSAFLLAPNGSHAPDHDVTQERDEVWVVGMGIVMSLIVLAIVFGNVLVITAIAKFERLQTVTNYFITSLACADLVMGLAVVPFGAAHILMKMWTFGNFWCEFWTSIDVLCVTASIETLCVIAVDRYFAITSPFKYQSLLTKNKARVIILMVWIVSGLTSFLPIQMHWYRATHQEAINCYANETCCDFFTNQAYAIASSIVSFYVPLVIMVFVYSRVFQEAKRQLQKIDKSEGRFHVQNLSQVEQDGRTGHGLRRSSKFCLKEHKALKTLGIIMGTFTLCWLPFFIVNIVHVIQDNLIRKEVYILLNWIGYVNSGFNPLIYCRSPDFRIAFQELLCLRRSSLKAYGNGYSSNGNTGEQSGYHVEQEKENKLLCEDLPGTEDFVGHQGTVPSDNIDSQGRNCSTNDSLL
Sequence of Muscarinic acetylcholine receptor M2 (Homo sapiens) (P08172 whole entry): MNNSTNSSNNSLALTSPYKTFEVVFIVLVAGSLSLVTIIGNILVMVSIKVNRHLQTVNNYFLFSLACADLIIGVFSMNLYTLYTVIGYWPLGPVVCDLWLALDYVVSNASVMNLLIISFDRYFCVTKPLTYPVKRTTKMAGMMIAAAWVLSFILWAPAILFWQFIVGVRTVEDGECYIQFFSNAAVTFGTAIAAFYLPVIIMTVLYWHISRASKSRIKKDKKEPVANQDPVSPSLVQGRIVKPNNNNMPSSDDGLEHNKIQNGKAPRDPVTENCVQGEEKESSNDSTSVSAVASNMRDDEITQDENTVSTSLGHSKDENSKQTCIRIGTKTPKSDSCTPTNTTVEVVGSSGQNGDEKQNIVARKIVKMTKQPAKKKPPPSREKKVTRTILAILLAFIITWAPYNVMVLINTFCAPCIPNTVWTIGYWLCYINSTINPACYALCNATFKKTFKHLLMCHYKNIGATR
Sequence of 5-hydroxytryptamine receptor 2A (Homo sapiens) (P28223 whole entry): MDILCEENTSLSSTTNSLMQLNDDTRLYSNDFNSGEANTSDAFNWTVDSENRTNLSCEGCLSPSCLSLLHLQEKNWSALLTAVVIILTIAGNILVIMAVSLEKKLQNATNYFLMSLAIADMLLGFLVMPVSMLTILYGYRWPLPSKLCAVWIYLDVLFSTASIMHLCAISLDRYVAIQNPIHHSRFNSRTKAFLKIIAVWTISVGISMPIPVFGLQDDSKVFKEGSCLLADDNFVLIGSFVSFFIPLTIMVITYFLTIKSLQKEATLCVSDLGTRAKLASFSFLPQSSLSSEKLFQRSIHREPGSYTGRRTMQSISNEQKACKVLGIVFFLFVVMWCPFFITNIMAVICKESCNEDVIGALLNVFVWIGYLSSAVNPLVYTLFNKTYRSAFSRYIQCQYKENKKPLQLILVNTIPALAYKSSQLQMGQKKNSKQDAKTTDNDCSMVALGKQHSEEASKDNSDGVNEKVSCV
Sequence of Stromelysin-1 (Homo sapiens) (P08254 100-477 limits assumed): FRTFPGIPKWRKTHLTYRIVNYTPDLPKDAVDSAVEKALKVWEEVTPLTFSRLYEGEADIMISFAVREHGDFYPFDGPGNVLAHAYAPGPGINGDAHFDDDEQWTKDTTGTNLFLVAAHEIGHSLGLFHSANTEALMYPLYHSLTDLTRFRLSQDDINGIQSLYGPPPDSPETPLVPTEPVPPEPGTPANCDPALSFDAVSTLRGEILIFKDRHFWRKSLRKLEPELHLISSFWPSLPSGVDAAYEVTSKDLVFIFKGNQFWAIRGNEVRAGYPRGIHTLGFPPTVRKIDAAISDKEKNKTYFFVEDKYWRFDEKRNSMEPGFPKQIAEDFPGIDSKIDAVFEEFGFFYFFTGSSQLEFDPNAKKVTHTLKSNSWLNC
Sequence of Chymase (Homo sapiens) (P23946 whole entry): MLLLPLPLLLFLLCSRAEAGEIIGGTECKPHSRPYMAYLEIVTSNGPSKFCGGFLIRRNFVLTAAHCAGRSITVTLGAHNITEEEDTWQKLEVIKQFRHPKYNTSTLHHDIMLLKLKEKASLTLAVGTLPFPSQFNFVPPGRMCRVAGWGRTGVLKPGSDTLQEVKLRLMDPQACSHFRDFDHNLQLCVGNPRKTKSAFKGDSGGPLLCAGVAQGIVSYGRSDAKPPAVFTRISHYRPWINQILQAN
Sequence of D(1A) dopamine receptor (Homo sapiens) (P21728 whole entry): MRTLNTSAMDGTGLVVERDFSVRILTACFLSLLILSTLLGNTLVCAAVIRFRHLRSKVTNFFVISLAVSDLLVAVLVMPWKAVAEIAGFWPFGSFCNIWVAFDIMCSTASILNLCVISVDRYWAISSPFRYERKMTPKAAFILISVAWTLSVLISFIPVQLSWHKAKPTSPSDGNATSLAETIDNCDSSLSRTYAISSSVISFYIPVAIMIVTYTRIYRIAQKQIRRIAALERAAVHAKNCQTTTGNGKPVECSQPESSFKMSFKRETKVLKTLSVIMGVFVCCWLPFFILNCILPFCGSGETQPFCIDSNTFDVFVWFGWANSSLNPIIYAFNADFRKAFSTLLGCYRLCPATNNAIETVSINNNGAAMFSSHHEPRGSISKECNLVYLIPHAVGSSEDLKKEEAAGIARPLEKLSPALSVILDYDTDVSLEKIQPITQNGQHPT
Sequence of Cholecystokinin receptor type A (Homo sapiens) (P32238 whole entry): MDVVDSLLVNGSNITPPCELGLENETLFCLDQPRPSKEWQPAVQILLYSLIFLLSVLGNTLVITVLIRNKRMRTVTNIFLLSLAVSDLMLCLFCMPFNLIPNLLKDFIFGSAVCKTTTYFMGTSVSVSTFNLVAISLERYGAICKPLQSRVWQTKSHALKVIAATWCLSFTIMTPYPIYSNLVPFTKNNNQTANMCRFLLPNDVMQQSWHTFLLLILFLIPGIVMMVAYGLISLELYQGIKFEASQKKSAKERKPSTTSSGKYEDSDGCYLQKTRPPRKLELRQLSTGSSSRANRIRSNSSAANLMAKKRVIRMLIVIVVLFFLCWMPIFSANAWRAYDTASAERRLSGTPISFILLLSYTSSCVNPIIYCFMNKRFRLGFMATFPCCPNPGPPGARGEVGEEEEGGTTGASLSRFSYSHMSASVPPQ
Sequence of Proteinase-activated receptor 1 (Homo sapiens) (P25116 whole entry): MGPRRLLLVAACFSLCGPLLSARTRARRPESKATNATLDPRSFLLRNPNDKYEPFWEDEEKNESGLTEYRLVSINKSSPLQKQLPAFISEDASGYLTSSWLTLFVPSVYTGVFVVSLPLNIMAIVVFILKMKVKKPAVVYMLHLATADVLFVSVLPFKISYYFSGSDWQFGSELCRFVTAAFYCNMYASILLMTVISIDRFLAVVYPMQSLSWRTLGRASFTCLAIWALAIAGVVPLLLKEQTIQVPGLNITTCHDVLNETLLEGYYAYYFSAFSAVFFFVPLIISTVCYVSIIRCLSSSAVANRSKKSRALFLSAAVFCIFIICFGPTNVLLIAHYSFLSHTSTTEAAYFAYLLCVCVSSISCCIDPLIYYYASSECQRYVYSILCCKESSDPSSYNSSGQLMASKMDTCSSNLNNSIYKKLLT
Sequence of Kappa-type opioid receptor (P41145 whole entry): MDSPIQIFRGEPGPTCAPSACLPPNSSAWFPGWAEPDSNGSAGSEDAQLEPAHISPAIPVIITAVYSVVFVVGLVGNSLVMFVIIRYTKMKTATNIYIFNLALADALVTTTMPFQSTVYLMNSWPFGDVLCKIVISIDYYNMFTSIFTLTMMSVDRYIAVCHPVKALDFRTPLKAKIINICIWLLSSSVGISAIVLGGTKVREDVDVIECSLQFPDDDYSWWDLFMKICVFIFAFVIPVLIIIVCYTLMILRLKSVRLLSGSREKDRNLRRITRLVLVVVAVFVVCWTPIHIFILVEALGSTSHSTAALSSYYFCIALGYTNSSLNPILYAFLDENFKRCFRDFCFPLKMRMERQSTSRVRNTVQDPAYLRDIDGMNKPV
Sequence of Cathepsin Z (Homo sapiens) (Q9UBR2 whole entry): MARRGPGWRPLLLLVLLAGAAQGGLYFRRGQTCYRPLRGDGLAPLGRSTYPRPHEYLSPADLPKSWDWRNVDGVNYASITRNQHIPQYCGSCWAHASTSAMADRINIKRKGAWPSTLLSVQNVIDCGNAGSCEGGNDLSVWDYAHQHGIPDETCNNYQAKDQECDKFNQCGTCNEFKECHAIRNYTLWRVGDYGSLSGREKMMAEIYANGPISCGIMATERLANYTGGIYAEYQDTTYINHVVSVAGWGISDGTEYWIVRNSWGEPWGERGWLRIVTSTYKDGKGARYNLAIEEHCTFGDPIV

CC[C@H](CC(=O)O)n1c(=O)c2ncccc2n(Cc2cn(C)c3cc(C)cc(C)c23)c1=O [BI-1942]
residual activity (Tryptase (Homo sapiens)): 102%
residual activity [1]: 101%
residual activity (Chymase (Homo sapiens)): -1%
inhibition [2]: 11.1%
residual activity [3]: 120%
inhibition [4]: 19.6%
residual activity [5]: 86%
residual activity [6]: 96%
residual activity [7]: 109%
residual activity [8]: 98%
inhibition [9]: -5.56%
residual activity (Rattus norvegicus [10]): 97%
inhibition [11]: -9.5%
residual activity (Caspase-3 (Homo sapiens)): 97%
residual activity [12]: 134%
inhibition [13]: 23.8%
residual activity [14]: 87%
residual activity [15]: 129%
residual activity [16]: 98%
residual activity [17]: 89%
inhibition [18]: 0.23%
residual activity [19]: 93%
inhibition [20]: 8.83%
residual activity (Rattus norvegicus [21]): 104%
residual activity [22]: 98%
residual activity [23]: 104%
residual activity [24]: 90%
inhibition [25]: 0.56%
residual activity [26]: 97%
residual activity [27]: 103%
residual activity [28]: 96%
residual activity [29]: 124%
residual activity [30]: 103%
residual activity [31]: 88%
inhibition [32]: -1.4%
inhibition [33]: 10.5%
inhibition [34]: 10.4%
residual activity [35]: 97%
residual activity [36]: 92%
